Reference: patent US6858235B2, “Antioxidant composition and method of preparation thereof” (Eromlife Co. Ltd., priority 2002, dated 2005)

Assay: Antioxidant activity using the free radical source DPPH (absorbance at 517 nm)
Format: biochemical
Conditions: for Antioxidant activity RC50: DPPH 0.4 mM, room temperature, 30 minutes, absorbance 517 nm, concentration giving 50% of control absorbance
Protocol: The antioxidant activity of the Rosa multiflora extract of the present invention obtained according to the above method was measured according to the method for measuring antioxidant activity (The Korean Society of Food and Nutrition, Handbook for Experiments in Food and Nutrition, 651p, 2000; Blois, M. S., Nature, 4617:1198, 1958).
In addition, active fractions showing antioxidant activity can be obtained by fractionating and purifying the obtained Rosa multiflora extracts by chromatography. It is preferable to carry out silica gel column chromatography once or twice. Where active fractions obtained by silica gel column chromatography are further subjected to ODS column chromatography, more highly purified active fractions can be obtained. A mixture of chloroform and methanol or a mixture of methanol and distilled water can be used as a developing solvent at the time of chromatography. A flow rate of the developing solvent is generally from 5 Ml/hr to 1000 Ml/hr and preferably from 20 Ml/hr to 500 Ml/hr. The fractions eluted by chromatography are collected in flasks in the amount of 5 Ml to 100 Ml respectively. Active fractions showing antioxidant activity can be obtained by measuring antioxidant activities of the collected fractions. Antioxidant activity can be measured by a known method (The Korean Society of Food and Nutrition, Handbook for Experiments in Food and Nutrition, 651p, 2000; Blois, M. S., Nature, 4617:1198, 1958).
Antioxidant activity was measured according to the method for measuring antioxidant activity using a free radical source, 1,1-diphenyl-2-picrylhydrazyl (DPPH) (The Korean Society of Food and Nutrition, Handbook for Experiments in Food and Nutrition, 651p, 2000; Blois, M. S., Nature, 4617: 1198, 1958). […] 0.8 Ml of DPPH (0.4 mM) solution and 3 Ml of ethanol were added, the reaction was carried out at the room temperature for 30 minutes and absorbance was measured at 517 nm. Antioxidant activity was expressed as a RC50 value. The RC50 represents the concentration of antioxidant (μg/Ml) required to achieve an absorbance equal to 50% of the absorbance of a control in which no antioxidants are contained.

Compound	Antioxidant activity RC50 [µg/mL]	Antioxidant activity relative to α-tocopherol (times stronger) (compared with the natural antioxidant α-tocopherol, DPPH RC50) [times]	Antioxidant activity relative to BHA (times stronger) (compared with the synthetic antioxidant BHA, DPPH RC50) [times]
Oc1cc(O)c2c(c1)O[C@H](c1ccc(O)c(O)c1)[C@@H](O)[C@@H]2c1c(O)cc(O)c2c1O[C@H](c1ccc(O)c(O)c1)[C@@H](O)C2 [Procyanidin B3, catechin-(4α→8)-catechin]	3.4	3.8	2.7
COc1ccc(O)c(C(C)(C)C)c1 [BHA, butylated hydroxy anisole, reference compound]	9.2	–	–
Cc1c(C)c2c(c(C)c1O)CC[C@@](C)(CCC[C@H](C)CCC[C@H](C)CCCC(C)C)O2 [α-tocopherol, reference compound]	13.0	–	–
